Data as given in ChEMBL document CHEMBL1131109, “Modeling RNA-ligand interactions: the Rev-binding element RNA-aminoglycoside complex” (1998).
≈ marks a conversion by molar mass, not a printed value.

The compounds below were run on Human rhinovirus sp. (assay: Compound was tested for minimum inhibitory concentration against human rhinovirus 14 (HRV14)).
Assay type: functional
Compound `Cc1cc(CCCCCOc2ccc(C3=NCCO3)cc2)on1` has an MIC of 0.5 µM (≈ 0.157 µg/mL). Work on `Cc1cc(CCCCCOc2ccc(C3=NC[C@@H](C)O3)cc2)on1` yielded an MIC of 0.6 µM (≈ 0.197 µg/mL). In the case of `Cc1cc(CCCCCCCOc2ccc(C3=NCCO3)cc2)on1` [DISOXARIL], the MIC is reported as 0.6 µM (≈ 0.205 µg/mL). With `Cc1cc(CCCCCOc2ccc(C3=NCCO3)cc2Cl)on1` the MIC was 2.4 µM (≈ 0.837 µg/mL). `CC[C@@H]1CN=C(c2ccc(OCCCCCCCc3cc(C)no3)cc2)O1` showed an MIC of 0.02 µM (≈ 0.00741 µg/mL). Work on `Cc1cc(CCCCCCCOc2ccc(C3=NC[C@H](C)O3)cc2)on1` yielded an MIC of 0.4 µM (≈ 0.143 µg/mL). Work on `Cc1cc(CCCCCCCOc2ccc(C3=NC[C@@H](C)O3)cc2Cl)on1` yielded an MIC of 0.2 µM (≈ 0.0782 µg/mL). In the case of `Cc1cc(CCCCCCCOc2ccc(C3=NC[C@@H](C)O3)cc2)on1`, the MIC is reported as 0.03 µM (≈ 0.0107 µg/mL).

What follows are compounds tested on Nucleic Acid (assay: Compound was tested for the inhibition of Rev-RBE RNA complex formation).
Assay type: functional
For `NC[C@H]1O[C@H](O[C@H]2[C@H](O[C@@H]3O[C@H](CO)[C@@H](O)[C@H]3O)[C@@H](O)[C@H](N)C[C@@H]2N)[C@H](N)[C@@H](O)[C@@H]1O`, the MIC was 100 µM (≈ 45.4 µg/mL). In the case of `NC[C@H]1O[C@H](O[C@H]2[C@H](O)[C@@H](O[C@H]3O[C@H](CO)[C@@H](O)[C@H](N)[C@H]3O)[C@H](N)C[C@@H]2N)[C@H](N)C[C@@H]1O`, the MIC is reported as 10 µM (≈ 4.68 µg/mL). Work on `NC[C@@H]1O[C@H](O[C@H]2[C@@H](O)[C@H](O[C@@H]3[C@@H](O)[C@H](N)C[C@H](N)[C@H]3O[C@H]3O[C@H](CN)[C@@H](O)[C@H](O)[C@H]3N)O[C@@H]2CO)[C@H](N)[C@@H](O)[C@@H]1O` yielded an MIC of 1 µM (≈ 0.615 µg/mL). `NC[C@@H]1O[C@H](O[C@H]2[C@@H](O)[C@H](O[C@@H]3[C@@H](O)[C@H](N)C[C@H](N)[C@H]3O[C@H]3O[C@H](CO)[C@@H](O)C[C@H]3N)O[C@@H]2CO)[C@H](N)[C@@H](O)[C@@H]1O[C@H]1O[C@H](CO)[C@@H](O)[C@H](O)[C@@H]1O` was tested, and the MIC was 10 µM (≈ 7.62 µg/mL). `NC[C@H]1O[C@H](O[C@H]2[C@H](O)[C@@H](O)[C@H](N)C[C@@H]2N)[C@H](N)[C@@H](O)[C@@H]1O` showed an MIC greater than 100 µM. `NC[C@@H]1O[C@@H](O[C@H]2[C@H](O)[C@@H](O[C@H]3O[C@H](CO)[C@@H](O)[C@H](N)[C@H]3O)[C@H](N)C[C@@H]2N)[C@@H](O)[C@H](O)[C@H]1O` gave an MIC greater than 100 µM. `NC[C@H]1O[C@H](O[C@H]2[C@H](O)[C@@H](O[C@H]3O[C@H](CO)[C@@H](O)[C@H](N)[C@H]3O)[C@H](N)C[C@@H]2N)[C@H](N)[C@@H](O)[C@@H]1O` was tested, and the MIC was 100 µM (≈ 48.4 µg/mL). For `NC[C@@H]1O[C@H](O[C@H]2[C@@H](O)[C@H](O[C@@H]3[C@@H](O)[C@H](N)C[C@H](N)[C@H]3O[C@H]3O[C@H](CO)[C@@H](O)[C@H](O)[C@H]3N)O[C@@H]2CO)[C@H](N)[C@@H](O)[C@@H]1O`, the MIC was greater than 100 µM. `CN[C@@H]1[C@@H](O)[C@@H](O[C@@H]2[C@@H](O)[C@H](O[C@H]3OC(CN)=CC[C@H]3N)[C@@H](N)C[C@H]2N)OC[C@]1(C)O` was tested, and the MIC was greater than 100 µM. With `CNC1C(O)C(OC2C(N)CC(N)C(OC3OC(CN)CCC3N)C2O)OCC1(C)O` (stereo not drawn) the MIC was 100 µM (≈ 45 µg/mL).
